Molecules are shown by their SMILES.

Series [1] addresses T1, h17β-HSD2 (Homo sapiens, UniProt P37059).
T1 sequence (P37059 1-387): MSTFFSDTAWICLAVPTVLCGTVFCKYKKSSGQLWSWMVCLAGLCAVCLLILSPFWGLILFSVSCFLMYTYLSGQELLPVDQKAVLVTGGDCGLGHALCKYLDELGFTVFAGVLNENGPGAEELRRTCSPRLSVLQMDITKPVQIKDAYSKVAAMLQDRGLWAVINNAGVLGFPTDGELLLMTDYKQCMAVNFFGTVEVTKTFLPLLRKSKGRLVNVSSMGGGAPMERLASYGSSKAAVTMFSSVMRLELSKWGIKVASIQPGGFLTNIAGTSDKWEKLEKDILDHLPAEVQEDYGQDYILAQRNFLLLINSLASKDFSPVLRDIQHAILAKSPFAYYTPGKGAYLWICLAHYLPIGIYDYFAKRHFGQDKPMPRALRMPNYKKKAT
Briefly: Inhibition of h17β-HSD2 in a cellular assay (MDA-MB-231). The series is classed as cell-based. As to conditions: MDA-MB-231 cell line, substrate E2 [200 nM], 6 h; for inhibition at 0.25 µM: MDA-MB-231, 250 nM, read-out: % inh HSD2 at 250 nM; for inhibition at 1.25 µM: MDA-MB-231, 1250 nM, read-out: % inh HSD2 at 1250 nM. As to the method: Cellular h17β-HSD2 inhibitory activity is measured using the breast cancer cell-line MDA-MB-231[32] (17β-HSD1 activity negligible). [^3H]-E2 (200 nM) is taken as substrate and is incubated with the inhibitor for 6 h at 37°C. After ether extraction, substrate and product are separated by HPLC and detected with a radioflow detector. Potency is evaluated as percentage of inhibition (inhibitor concentrations used: 1250 nM and 250 nM).

The target of series [2] is T1, h17β-HSD2. Briefly: Inhibition of h17β-HSD2 in cell-free assay. The series is classed as biochemical. Set-up: from tissue; host or cells: human placenta, microsomal fraction. As to conditions: for s.f. (selectivity factor) = IC50(17β-HSD1)/IC50(17β-HSD2): human enzymes, cell-free.
Series [3] has as its target T2, ERα (Homo sapiens, UniProt P03372).
T2 sequence (P03372 1-595): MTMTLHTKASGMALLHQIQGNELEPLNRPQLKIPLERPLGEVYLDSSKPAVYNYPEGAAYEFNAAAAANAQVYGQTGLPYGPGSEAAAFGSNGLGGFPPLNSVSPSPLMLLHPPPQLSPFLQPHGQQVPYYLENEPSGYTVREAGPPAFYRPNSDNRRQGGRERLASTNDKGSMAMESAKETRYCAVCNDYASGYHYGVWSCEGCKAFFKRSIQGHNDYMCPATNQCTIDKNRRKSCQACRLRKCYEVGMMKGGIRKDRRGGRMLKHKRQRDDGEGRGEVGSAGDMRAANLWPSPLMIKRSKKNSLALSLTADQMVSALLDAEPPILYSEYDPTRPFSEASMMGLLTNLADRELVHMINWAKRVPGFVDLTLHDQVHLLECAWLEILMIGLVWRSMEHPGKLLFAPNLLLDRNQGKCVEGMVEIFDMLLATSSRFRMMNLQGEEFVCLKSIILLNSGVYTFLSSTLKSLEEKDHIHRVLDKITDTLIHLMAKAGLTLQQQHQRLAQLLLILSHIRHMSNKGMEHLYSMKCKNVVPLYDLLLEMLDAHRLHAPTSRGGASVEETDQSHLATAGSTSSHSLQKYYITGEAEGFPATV
Briefly: Estrogen receptor affinity in a cell-free assay (ERα). It counts as binding. To be noted: 1000-fold excess relative to E2; recombinant human ERα. As to the method:
The binding affinity of selected compounds to ERα and ERβ was determined according to the recommendations of the US Environmental Protection Agency (EPA) by their Endocrine Disruptor Screening Program (EDSP)[24] using recombinant human proteins.
The potential inhibitors were dissolved in DMSO (5% final concentration). […] After incubation, ligand-receptor complexes were selectively bound to hydroxyapatite (83.5 g/LinTE-buffer). The bound complex was washed three times and resuspended in ethanol. For radiodetection, scintillator cocktail (Quickszint 212, Zinsser Analytic, Frankfurt) was added and samples were measured in a liquid scintillation counter (1450 LSC & Luminescence Counter, Perkin Elmer).
After the assay was established and validated, a modification was made to increase throughput.

Series [4] deals with T3, m17β-HSD2 (Mus musculus, UniProt P51658).
T3 construct: The microsomal fraction (m17β-HSD2) was obtained from mouse liver as described for h17β-HSD2; tissue Pharmacelsus GmbH (mouse livers); host or cells: mouse liver, microsomal fraction
T3 sequence (P51658 1-381): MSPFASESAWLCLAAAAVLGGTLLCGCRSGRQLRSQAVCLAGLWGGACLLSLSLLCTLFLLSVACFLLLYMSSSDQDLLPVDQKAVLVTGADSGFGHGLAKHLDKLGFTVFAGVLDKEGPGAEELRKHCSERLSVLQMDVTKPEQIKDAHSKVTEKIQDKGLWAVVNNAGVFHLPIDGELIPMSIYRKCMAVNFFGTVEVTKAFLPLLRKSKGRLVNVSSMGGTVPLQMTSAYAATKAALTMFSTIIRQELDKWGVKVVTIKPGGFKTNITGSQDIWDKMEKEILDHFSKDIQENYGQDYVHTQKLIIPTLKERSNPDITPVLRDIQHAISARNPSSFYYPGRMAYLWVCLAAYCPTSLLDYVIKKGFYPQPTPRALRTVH
Briefly: Inhibition of m17β-HSD2 in cell-free assay. The series is classed as biochemical. The essentials: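 Mouse liver microsomal enzyme incubated with tritiated substrate, NAD+ [1500 μM] and inhibitor at 37 °C in 50 mM phosphate buffer with 20% glycerol, 1 mM EDTA, 1% DMSO final. Stopped after 20 min with HgCl2, steroids ether-extracted and quantified by HPLC radioflow detection; at least two independent experiments.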

What is called IC50 is the concentration that inhibits the measured activity by half. Turning to `COc1cccc(N(C)C(=O)c2ccc(-c3cccc(C)c3)cc2)c1` [Compound 6a, N-(3-methoxyphenyl)-N,3'-dimethyl-[1,1'-biphenyl]-4-carboxamide], in series [1], the inhibition at 0.25 µM is 60% and the inhibition at 1.25 µM was roughly 90%. Further, in series [2], the half-maximal inhibitory concentration (IC50) worked out at 260 nM and the “s.f. (selectivity factor) = IC50(17β-HSD1)/IC50(17β-HSD2)” value worked out at 25. Besides, the “displacement of E2 from ERα” value in series [3] is no more than 20%. In series [4], this molecule displayed a half-inhibitory concentration (IC50) of 260 nM.
`COc1cccc(N(C)C(=O)c2ccc(-c3ccc(C)c(C)c3)cc2)c1` [Compound 17a, N-(3-methoxyphenyl)-N,3',4'-trimethyl-[1,1'-biphenyl]-4-carboxamide]: in series [1], the inhibition at 0.25 µM turned out to be 66% and the inhibition at 1.25 µM was roughly 90%. For the same molecule, in series [2], it took 300 nM to reach half-maximal inhibition (IC50) and the “s.f. (selectivity factor) = IC50(17β-HSD1)/IC50(17β-HSD2)” value was determined as 44. Also, the “displacement of E2 from ERα” value in series [3] is given as no more than 20%. The midpoint of inhibition in series [4], the IC50, lay at 140 nM.
As a reminder, the melting point is the temperature, or range, at which the solid turns liquid. The molecule `Cc1cccc(N(C)C(=O)c2ccc(-c3cccc(C)c3F)cc2)c1` [Compound 21a, 2'-Fluoro-N,3'-dimethyl-N-(m-tolyl)-[1,1'-biphenyl]-4-carboxamide] showed a melting point of 73 to 76 °C. In addition, in series [2], half-maximal inhibition (IC50) was put at 330 nM and the “s.f. (selectivity factor) = IC50(17β-HSD1)/IC50(17β-HSD2)” value was 11. Also, the “displacement of E2 from ERα” value in series [3] is recorded as no more than 20%. For the same molecule, the inhibition at 1 µM in series [4] (read-out: % inh. at 1 μM m17β-HSD2) was 56%.
The molecule `Cc1cccc(-c2ccc(C(=O)N(C)Cc3cccc(O)c3)cc2)c1F` [Compound 25, 2'-Fluoro-N-(3-hydroxybenzyl)-N,3'-dimethyl-[1,1'-biphenyl]-4-carboxamide] showed a melting point of 123 to 126 °C. In series [1], the inhibition at 0.25 µM is 67% and the inhibition at 1.25 µM was roughly 90%. For the same molecule, in series [2], half-maximal inhibition (IC50) required 260 nM and the “s.f. (selectivity factor) = IC50(17β-HSD1)/IC50(17β-HSD2)” value was determined as 118. In series [3], the “displacement of E2 from ERα” value is reported as no more than 20%. The molecule further showed an IC50 in series [4] of 190 nM.
